≈ marks a conversion by molar mass, not a printed value.

In data set [1] the test system is Candida albicans ATCC 18804. Put plainly: broth microdilution MIC/MFC. The class given is cell-based. The following applies: for MFC: ATCC18804, C. albicans ATCC 18804, read-out: MFC; for MIC: ATCC18804, C. albicans ATCC 18804, read-out: MIC. On the technique in general: Dilution methods test growth across graded concentrations, often in twofold steps.
In a further data set the test system is Candida krusei ATCC 6258. Put plainly: broth microdilution MIC/MFC. Particulars: Pichia kudriavzevii, ATCC6258, C. krusei ATCC 6258; for MFC: read-out: MFC; for MIC: read-out: MIC. The class given is cell-based.
Another data set has as its system four strains of Candida. Put plainly: broth microdilution MIC/MFC, summary over the four strains. The class given is cell-based. Particulars: for fold more active than fluconazole: anti-Candida activity; for MFC / MIC: summary over two C. albicans, one C. krusei and one C. parapsilosis strain.
Data set [2] relates to Candida albicans ATCC 10231. Kind of data set: broth microdilution MIC/MFC. Particulars: for MFC: ATCC10231, C. albicans ATCC 10231, read-out: MFC; for MIC: ATCC10231, C. albicans ATCC 10231, read-out: MIC. The class given is cell-based.
Data set [3] in a line: lipophilicity by RP-TLC with PCA. Particulars: for RM0: RP-TLC C18, water-i-propanol 45-65%, intercept, RM extrapolated to 0% organic modifier (lipophilicity); for b: RP-TLC regression slope (specific hydrophobic surface area); for P1: score of first principal component of Rf data, low P1 = highly lipophilic; for P2: score of second principal component of Rf data. The class given is physicochemical. Details: key to P1 / P2: PCA scores of compounds computed from Rf data. As for the experimental part: The lipophilic character of twenty thiazolin-4-one derivatives was assessed with the help of the principal component analysis (PCA) based on the reversed-phase thin-layer chromatography (RP-TLC) data.
The chromatographic behavior of the test compounds was studied on C18 silicagel bonded 60 RP-180F254S TLC (20 × 20 cm) plates, purchased from Merck (Darmstadt, Germany). The test compounds’ solutions (1 mg/mL) were prepared by dissolving the samples in DMSO (Merck, Darmstadt, Germany). The plates were manually spotted with 3 µL aliquots of each solution at 10 mm from the base and 5 mm from the edge of the plate, leaving a 10 mm distance between successive spots, and developed by the ascending technique, without preconditioning. Chromatography was performed in a normal developing chamber at room temperature (~24 °C), the developing distance being of 9 cm. The solvent system used as mobile phase consisted of a water-i-propanol mixture, with a varying content of organic modifier (i-propanol—concentration ranged between 45% and 65% (v/v), with 5% vol. increments). Before the development, the chamber was saturated with the mobile phase for 15 min. After being developed, the dried plates were visually inspected under the UV light (λ = 254 nm), each spot was clearly marked and its distance was manually measured in order to calculate the Rf values. The spots of the compounds 3f, 10 and 11 were not visible in UV light, thus their Rf values could not be calculated, therefore they were excluded from this assay.
Based on the Rf values, one of the most common lipophilic estimator, meaning the isocratic retention factor RM was calculated using the Bate-Smith and Westall equations [40].
RP-TLC provides retention data in the form of Rf and the corresponding RM values (Equation (2)) that can be used to derive chromatographic descriptors for estimating lipophilicity: RM0, b and PCA. The most popular lipophilicity descriptor estimated by this method is RM and it is derived from the retention factor (Rf) according to the following formula: RM = log[(1/Rf) − 1] (2) where Rf is calculated on the basis of migration distance of a compound and the solvent front.
As RM value (related to the molecular lipophilicity) depends linearly on the concentration of the organic modifier in the mobile phase, the value is extrapolated to pure water as mobile phase. In order to increase the accuracy of the lipophilicity determination, the RM values extrapolated to zero organic modifier concentration (RM0) have been calculated from the linear correlation between the RM values and the concentration of the organic component of the mobile phase: RM = RM0 + bc (3) where RM0 is the lipophilicity estimation parameter, RM is the retention of the solute, b is the slope, and c is the concentration of the mobile phase organic modifier (i-propanol).
The intercept (RM0) in Equation (3) represents the extrapolated RM values at 0% organic modifier.
PCA was performed on the obtained retention parameters with the help of XL-STAT extension. […] PCA gave the coordinates (scores) of the studied compounds and also the loadings of the variables (solvents) on the principal components.

The subject of data set [4] is Candida albicans ATCC 10231. Kind of data set: cup-plate agar diffusion method, inhibition zone diameters. The following applies: ATCC10231, C. albicans ATCC 10231, 1 mg/mL in DMSO, 20 µg/well, mean of three ± SD, read-out: inhibition zone diameters. The class given is cell-based. In general terms: In agar diffusion tests the substance spreads into inoculated agar from a disc or well.

For data set [5], the system named is Candida parapsilosis ATCC 22019. Put plainly: broth microdilution MIC/MFC. The class given is cell-based. Particulars: Lodderomyces parapsilosis, ATCC22019, C. parapsilosis ATCC 22019; for MFC: read-out: MFC; for MIC: read-out: MIC.

Turning to `O=C1N=C(Nc2cccc3ccccc23)SC1=Cc1ccc(Cl)cc1Cl` [Compound 9b, 5-(2,4-Dichlorobenzylidene)-2-(naphthalen-1-ylamino)thiazol-4(5H)-one], the melting point – broadly, the temperature of the solid-liquid transition – is 185 °C. Besides, in data set [1], the minimal fungicidal concentration (MFC) (commonly the smallest concentration meeting the test's criterion for killing the fungus) was found to be 0.03 µg/mL (≈ 0.0751 µM) and the MIC (commonly the least concentration at which growth counts as inhibited) was 0.015 µg/mL (≈ 0.0376 µM). Moreover, in the data set on Candida krusei ATCC 6258, the minimum fungicidal concentration (MFC) was 0.015 µg/mL (≈ 0.0376 µM) and the MIC was 0.015 µg/mL (≈ 0.0376 µM). In addition, in the data set on four strains of Candida, the “fold more active than fluconazole” value is listed as “over 500 fold”, the MFC worked out at 0.015 µg/mL (≈ 0.0376 µM) and the minimal inhibitory concentration (MIC) was 0.015 µg/mL (≈ 0.0376 µM). Also, in data set [2], the MFC was 0.03 µg/mL (≈ 0.0751 µM) and the MIC is 0.015 µg/mL (≈ 0.0376 µM). In data set [3], the RM0 is 2.9283, the b is −4.3675, the P1 is recorded as −2.876 and the P2 worked out at 0.232. Moreover, the zone of inhibition at 1000 µg/mL in data set [4] stood at 18 ± 0.2 mm. Besides, in data set [5], the MFC amounted to 0.015 µg/mL (≈ 0.0376 µM) and the MIC was 0.015 µg/mL (≈ 0.0376 µM).

`O=C1N=C(Nc2cccc3ccccc23)SC1=Cc1csc(-c2ccccc2)n1` [Compound 9d, 2-(Naphthalen-1-ylamino)-5-((2-phenylthiazol-4-yl)methylene)thiazol-4(5H)-one] yielded a melting point of 312 °C. In data set [1], the MFC amounted to 3.9 µg/mL (≈ 9.43 µM) and the MIC turned out to be 3.9 µg/mL (≈ 9.43 µM). Moreover, in the data set with Candida krusei ATCC 6258, the MFC turned out to be 0.48 µg/mL (≈ 1.16 µM) and the MIC turned out to be 0.24 µg/mL (≈ 0.58 µM). For the same compound, in data set [2], the MFC worked out at 15.6 µg/mL (≈ 37.8 µM) and the minimum inhibitory concentration (MIC) came out at 7.81 µg/mL (≈ 18.9 µM). Also, in data set [3], the RM0 is on record as 3.287, the b is −4.6935, the P1 was −3.746 and the P2 was found to be 0.618. For the same compound, the zone of inhibition at 1000 µg/mL in data set [4] came to 20 ± 1 mm. For the same compound, in data set [5], the MFC is 0.24 µg/mL (≈ 0.58 µM) and the minimal inhibitory concentration (MIC) came out at 0.12 µg/mL (≈ 0.29 µM).

Take `O=C1N=C(Nc2cccc3ccccc23)SC1=Cc1coc2ccc(Cl)cc2c1=O` [Compound 9e, 5-((6-Chloro-4-oxo-4H-chromen-3-yl)methylene)-2-(naphthalen-1-ylamino)thiazol-4(5H)-one]: the melting point was 266 to 268 °C. In data set [1], the MFC is 3.9 µg/mL (≈ 9.01 µM) and the MIC worked out at 1.95 µg/mL (≈ 4.5 µM). Moreover, in the data set on Candida krusei ATCC 6258, the MFC was 3.9 µg/mL (≈ 9.01 µM) and the MIC is 1.95 µg/mL (≈ 4.5 µM). Further, in data set [2], the MFC worked out at 15.6 µg/mL (≈ 36.1 µM) and the MIC was 7.81 µg/mL (≈ 18 µM). In data set [3], the RM0 is listed as 2.3983, the b is on record as −3.319, the P1 is on record as −3.292 and the P2 is on record as 0.708. The zone of inhibition at 1000 µg/mL in data set [4] turned out to be 22 ± 0.5 mm. In addition, in data set [5], the MFC is 3.9 µg/mL (≈ 9.01 µM) and the MIC is 1.95 µg/mL (≈ 4.5 µM).

For `CNC1=NC(=O)CS1` [Compound 10, 2-(methylamino)thiazol-4(5H)-one], the MFC in data set [1] came out at 0.03 µg/mL (≈ 0.23 µM); in the data set on Candida krusei ATCC 6258 it was 0.015 µg/mL (≈ 0.115 µM); against four strains of Candida it was 0.015 µg/mL (≈ 0.115 µM); in data set [2], 0.03 µg/mL (≈ 0.23 µM); in data set [5] it was 0.015 µg/mL (≈ 0.115 µM). The MIC (in data set [1]; in the data set on Candida krusei ATCC 6258; with four strains of Candida; in data set [2]; in data set [5]) was 0.015 µg/mL (≈ 0.115 µM) each time. Moreover, in the data set on four strains of Candida, the “fold more active than fluconazole” value is recorded as “over 500 fold”. For the same compound, in data set [4], the zone of inhibition at 1000 µg/mL is 22 ± 1 mm.

For the compound `OC(Cn1cncn1)(Cn1cncn1)c1ccc(F)cc1F` [Fluconazole, reference compound], the MFC in data set [1] is 31.2 µg/mL (≈ 102 µM); in the data set on Candida krusei ATCC 6258, 31.2 µg/mL (≈ 102 µM); in the data set on four strains of Candida, 15.6 to 31.2 µg/mL (≈ 51 to 102 µM); in data set [2], 31.2 µg/mL (≈ 102 µM); in data set [5], 15.6 µg/mL (≈ 51 µM). The MIC was 15.6 µg/mL (≈ 51 µM) in data set [1]; 15.6 µg/mL (≈ 51 µM) with Candida krusei ATCC 6258; 7.81 to 15.6 µg/mL (≈ 25.5 to 51 µM) against four strains of Candida; 15.6 µg/mL (≈ 51 µM) in data set [2]; 7.81 µg/mL (≈ 25.5 µM) in data set [5]. In data set [4], the zone of inhibition at 1000 µg/mL came out at 22 ± 0.5 mm.

As for `CC(=O)N1CCN(c2ccc(OCC3COC(Cn4ccnc4)(c4ccc(Cl)cc4Cl)O3)cc2)CC1` (stereo not drawn) [Ketoconazole, reference compound], the minimal fungicidal concentration (MFC) in data set [1] is 15.6 µg/mL (≈ 29.4 µM); in the data set on Candida krusei ATCC 6258 it was 15.6 µg/mL (≈ 29.4 µM); in the data set with four strains of Candida, 7.81 to 15.6 µg/mL (≈ 14.7 to 29.4 µM); in data set [2], 15.6 µg/mL (≈ 29.4 µM); in data set [5], 7.81 µg/mL (≈ 14.7 µM). Besides, the MIC in data set [1] is 7.81 µg/mL (≈ 14.7 µM); in the data set on Candida krusei ATCC 6258, 7.81 µg/mL (≈ 14.7 µM); against four strains of Candida it was 3.9 to 7.81 µg/mL (≈ 7.34 to 14.7 µM); in data set [2], 7.81 µg/mL (≈ 14.7 µM); in data set [5], 3.9 µg/mL (≈ 7.34 µM).

The values above are taken from paper PMC5297809, “Design, Synthesis and Antifungal Activity Evaluation of New Thiazolin-4-ones as Potential Lanosterol 14α-Demethylase Inhibitors” (International Journal of Molecular Sciences, 2017).
